From patent US20230087342A1, “AZEPANE DERIVATIVE” (Nippon Chemiphar Co., Ltd., priority 2019, published 2023)

Target: T1, human κ opioid receptors (Homo sapiens, UniProt P41145)
T1 construct: host or cells: CHO cells
Assay: Opioid receptor function test (Lance Ultra cAMP kit, agonist activity)
Assay type: cell-based
Settings: CHO cells expressing human κ opioid receptors, 10 μM forskolin, 30 minutes
Experimental: Opioid Receptor Function Test
The function activity of the compound of the present invention on κ opioid receptors was examined.
Method: Using a Lance Ultra cAMP kit (Perkin Elmer), the examination was performed according to a predetermined method. In evaluation of agonist activity, CHO cells expressing human κ opioid receptors (Catalog No. CT6606, accession No. NM_000912) and a test compound were reacted in an assay buffer (1×HSS, 5 mM HEPES, pH 7.4, 0.5 mM IBMX (isobutylmethyixanthine), 0.1% SA) in the presence of 10 μM forskolin for 30 minutes. Subsequently, a cAMP detection reagent in the kit was added. One hour later, time-resolved fluorescence measurement was performed using an EnVision plate reader (Perkin Elmer). The evaluation of the test compound was performed in a concentration range of 10^−14 to 10^−7 M for the κ opioid receptor function test.

T1 sequence (P41145 whole entry): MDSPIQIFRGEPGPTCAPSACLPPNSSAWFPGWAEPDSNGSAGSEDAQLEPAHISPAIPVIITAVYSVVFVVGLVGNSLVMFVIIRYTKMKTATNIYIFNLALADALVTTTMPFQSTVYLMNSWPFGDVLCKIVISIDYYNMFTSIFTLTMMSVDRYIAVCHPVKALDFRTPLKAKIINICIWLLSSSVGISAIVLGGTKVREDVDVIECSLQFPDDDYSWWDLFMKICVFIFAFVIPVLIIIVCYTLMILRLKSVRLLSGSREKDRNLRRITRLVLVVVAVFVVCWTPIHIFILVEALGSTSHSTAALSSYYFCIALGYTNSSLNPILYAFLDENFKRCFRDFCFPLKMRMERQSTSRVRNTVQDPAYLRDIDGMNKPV

Structure (SMILES) | EC50 [nM]
N#Cc1cnn(CCN2CC[C@]34CCN(CC5CC5)[C@H](Cc5ccc(O)cc53)[C@]4(O)CC2)c1 [Example 189, 1-(2-((5aS,6R,11bS)-14-(cyclopropylmethyl)-5a,10-dihydroxy-1,2,5,5a,6,7-hexahydro-6,11b-(epiminoethano)naphtho[1,2-d]azepin-3(4H)-yl)ethyl)-1H-pyrazole-4-carbonitrile] | 0.39
Oc1ccc2c(c1)[C@@]13CCN(CCc4ccco4)CC[C@@]1(O)[C@@H](C2)N(CC1CC1)CC3 [Example 32, (5aS,6R,11bS)-14-(cyclopropylmethyl)-3-(2-(furan-2-yl)ethyl)-2,3,4,5,6,7-hexahydro-6,11b-(epiminoethano)naphtho[1,2-d]azepine-5a,10(1H)-diol] | 0.13
O=C(Cc1cc2ccccn2n1)N1CC[C@]23CCN(CC4CC4)[C@H](Cc4ccc(O)cc42)[C@]3(O)CC1 [Example 117, 1-((5aS,6R,11bR)-14-(cyclopropylmethyl)-5a,10-dihydroxy-1,2,5,5a,6,7-hexahydro-6,11b-(epiminoethano)naphtho[1,2-d]azepin-3(4H)-yl)-2-(pyrazolo[1,5-a]pyridin-2-yl)ethan-1-one] | 0.4
Cc1cnn(CCN2CC[C@]34CCN(CC5CC5)[C@H](Cc5ccc(O[C@@H]6O[C@H](C(=O)O)[C@@H](O)C(O)[C@H]6O)cc53)[C@]4(O)CC2)c1 (stereo partly drawn) [Example 246, (2S,3S,5R,6S)-6-(((5aS,6R,11bS)-14-(cyclopropylmethyl)-5a-hydroxy-3-(2-(4-methyl-1H-pyrazol-1-yl)ethyl)-1,2,3,4,5,5a,6,7-octahydro-6,11b-(epiminoethano)naphtho[1,2-d]azepin-10-yl)oxy)-3,4,5-trihydroxytetrahydro-2H-pyran-2-carboxylic acid] | 2.6
Cn1nc(CCN2CC[C@]34CCN(CC5CC5)[C@H](Cc5ccc(O)cc53)[C@]4(O)CC2)c2ccccc21 [Example 113, (5aS,6R,11bS)-14-(cyclopropylmethyl)-3-(2-(1-methyl-1H-indazol-3-yl)ethyl)-2,3,4,5,6,7-hexahydro-6,11b-(epiminoethano)naphtho[1,2-d]azepine-5a,10(1H)-diol] | 0.56
Cc1cn(CCN2CC[C@]34CCN(CC5CC5)[C@H](Cc5ccc(O)cc53)[C@]4(O)CC2)nc1C(F)(F)F [Example 164, (5aS,6R,11bS)-14-(cyclopropylmethyl)-3-(2-(4-methyl-3-(trifluoromethyl)-1H-pyrazol-1-yl)ethyl)-2,3,4,5,6,7-hexahydro-6,11b-(epiminoethano)naphtho[1,2-d]azepine-5a,10(1H)-diol] | 0.26
Cn1nc(CC(=O)N2CC[C@]34CCN(CC5CC5)[C@H](Cc5ccc(O)cc53)[C@]4(O)CC2)cc1C(F)(F)F [Example 36, 1-((5aS,6R,11bR)-14-(cyclopropylmethyl)-5a,10-dihydroxy-1,2,5,5a,6,7-hexahydro-6,11b-(epiminoethano)naphtho[1,2-d]azepin-3(4H)-yl)-2-(1-methyl-5-(trifluoromethyl)-1H-pyrazol-3-yl)ethan-1-one] | 0.025
Oc1ccc2c(c1)[C@@]13CCN(CCN4CCc5ccccc54)CC[C@@]1(O)[C@@H](C2)N(CC1CC1)CC3 [Example 126, (5aS,6R,11bS)-14-(cyclopropylmethyl)-3-(2-(indolin-1-yl)ethyl)-2,3,4,5,6,7-hexahydro-6,11b-(epiminoethano)naphtho[1,2-d]azepine-5a,10(1H)-diol] | 0.74
Cc1cc2c(cc1O)[C@@]13CCN(C(=O)Cc4cn5ccccc5n4)CC[C@@]1(O)[C@@H](C2)N(CC1CC1)CC3 [Example 314, 1-((5aS,6R,11bR)-14-(cyclopropylmethyl)-5a,10-dihydroxy-9-methyl-1,2,5,5a,6,7-hexahydro-6,11b-(epiminoethano)naphtho[1,2-d]azepin-3(4H)-yl)-2-(imidazo[1,2-a]pyridin-2-yl)ethan-1-one] | 0.27
Cc1cnn(CCCN2CC[C@]34CCN(CC5CC5)[C@H](Cc5ccc(O)cc53)[C@]4(O)CC2)c1 [Example 230, (5aS,6R,11bS)-14-(cyclopropylmethyl)-3-(3-(4-methyl-1H-pyrazol-1-yl)propyl)-2,3,4,5,6,7-hexahydro-6,11b-(epiminoethano)naphtho[1,2-d]azepine-5a,10(1H)-diol] | 0.066
Cc1cnn(CCN2CC[C@]34CCN(C[C@@H]5C[C@@H]5F)[C@H](Cc5ccc(O)cc53)[C@]4(O)CC2)c1 [Example 219, (5aS,6R,11bS)-14-(((1S,2S)-2-fluorocyclopropyl)methyl)-3-(2-(4-methyl-1H-pyrazol-1-yl)ethyl)-2,3,4,5,6,7-hexahydro-6,11b-(epiminoethano)naphtho[1,2-d]azepine-5a,10(1H)-diol] | 0.23
Cc1cnn(CCN2CC[C@]34CCN(CC5CC5)[C@H](Cc5ccc(OC(=O)C(C)(C)C)cc53)[C@]4(O)CC2)c1 [Example 238, (5aS,6R,11bS)-14-(cyclopropylmethyl)-5a-hydroxy-3-(2-(4-methyl-1H-pyrazol-1-yl)ethyl)-1,2,3,4,5,5a,6,7-octahydro-6,11b-(epiminoethano)naphtho[1,2-d]azepin-10-yl pivalate] | 0.45
Oc1ccc2c(c1)[C@@]13CCN(CCc4nc5ccccc5s4)CC[C@@]1(O)[C@@H](C2)N(CC1CC1)CC3 [Example 128, (5aS,6R,11bS)-3-(2-(benzo[d]thiazol-2-yl)ethyl)-14-(cyclopropylmethyl)-2,3,4,5,6,7-hexahydro-6,11b-(epiminoethano)naphtho[1,2-d]azepine-5a,10(1H)-diol] | 0.1
Cc1cnn(C2CC(N3CC[C@]45CCN(CC6CC6)[C@H](Cc6ccc(O)cc64)[C@]5(O)CC3)C2)c1 (single isomer, unassigned) [Example 227 (II)] | 0.16
CCCN1CC[C@]23CCN(CCc4ccccn4)CC[C@@]2(O)[C@H]1Cc1ccc(O)cc13 [Example 159, (5aS,6R,11bS)-14-propyl-3-(2-(pyridin-2-yl)ethyl)-2,3,4,5,6,7-hexahydro-6,11b-(epiminoethano)naphtho[1,2-d]azepine-5a,10(1H)-diol] | 0.77
O=C(Cn1cc(C2CC2)cn1)N1CC[C@]23CCN(CC4CC4)[C@H](Cc4ccc(O)cc42)[C@]3(O)CC1 [Example 160, 2-(4-cyclopropyl-1H-pyrazol-1-yl)-1-((5aS,6R,11bR)-14-(cyclopropylmethyl)-5a,10-dihydroxy-1,2,5,5a,6,7-hexahydro-6,11b-(epiminoethano)naphtho[1,2-d]azepin-3(4H)-yl)ethan-1-one] | 0.045
Cc1ccnc(CCN2CC[C@]34CCN(CC5CC5)[C@H](Cc5ccc(O)cc53)[C@]4(O)CC2)c1 [Example 105, (5aS,6R,11bS)-14-(cyclopropylmethyl)-3-(2-(4-methylpyridin-2-yl)ethyl)-2,3,4,5,6,7-hexahydro-6,11b-(epiminoethano)naphtho[1,2-d]azepine-5a,10(1H)-diol] | 0.088
CCC1C[C@@]2(O)[C@H]3Cc4ccc(O)cc4[C@]2(CCN1C(=O)Cc1ccccn1)CCN3CC1CC1 (stereo partly drawn) [Example 347, 1-((5aS,6R,11bR)-14-(cyclopropylmethyl)-4-ethyl-5a,10-dihydroxy-1,2,5,5a,6,7-hexahydro-6,11b-(epiminoethano)naphtho[1,2-d]azepin-3(4H)-yl)-2-(pyridin-2-yl)ethan-1-one] | 0.12
Oc1ccc2c(c1)[C@@]13CCN(CCCc4ccccn4)CC[C@@]1(O)[C@@H](C2)N(CC1CC1)CC3 [Example 69, (5aS,6R,11bS)-14-(cyclopropylmethyl)-3-(3-(pyridin-2-yl)propyl)-2,3,4,5,6,7-hexahydro-6,11b-(epiminoethano)naphtho[1,2-d]azepine-5a,10(1H)-diol] | 0.28
CCc1cc(CC(=O)N2CC[C@]34CCN(CC5CC5)[C@H](Cc5ccc(O)cc53)[C@]4(O)CC2)no1 [Example 191, 1-((5aS,6R,11bR)-14-(cyclopropylmethyl)-5a,10-dihydroxy-1,2,5,5a,6,7-hexahydro-6,11b-(epiminoethano)naphtho[1,2-d]azepin-3(4H)-yl)-2-(5-ethylisoxazol-3-yl)ethan-1-one] | 0.48
Oc1ccc2c(c1)[C@@]13CCN(CCc4ncccc4F)CC[C@@]1(O)[C@@H](C2)N(CC1CC1)CC3 [Example 100, (5aS,6R,11bS)-14-(cyclopropylmethyl)-3-(2-(3-fluoropyridin-2-yl)ethyl)-2,3,4,5,6,7-hexahydro-6,11b-(epiminoethano)naphtho[1,2-d]azepine-5a,10(1H)-diol] | 0.26
Oc1ccc2c(c1)[C@@]13CCN(CCc4ccsn4)CC[C@@]1(O)[C@@H](C2)N(CC1CC1)CC3 [Example 209, (5aS,6R,11bS)-14-(cyclopropylmethyl)-3-(2-(isothiazol-3-yl)ethyl)-2,3,4,5,6,7-hexahydro-6,11b-(epiminoethano)naphtho[1,2-d]azepine-5a,10(1H)-diol] | 0.05
Oc1ccc2c(c1)[C@@]13CCN(CCn4cc5ccccc5n4)CC[C@@]1(O)[C@@H](C2)N(CC1CC1)CC3 [Example 120, (5aS,6R,11bS)-3-(2-(2H-indazol-2-yl)ethyl)-14-(cyclopropylmethyl)-2,3,4,5,6,7-hexahydro-6,11b-(epiminoethano)naphtho[1,2-d]azepine-5a,10(1H)-diol] | 0.053
Cc1cnn(CCN2CC[C@]34CCN(CC5CC5)[C@H](Cc5ccc(O)cc53)[C@]4(O)CC2C)c1 (stereo partly drawn) [Example 274, (5aS,6R,11bS)-14-(cyclopropylmethyl)-4-methyl-3-(2-(4-methyl-1H-pyrazol-1-yl)ethyl)-2,3,4,5,6,7-hexahydro-6,11b-(epiminoethano)naphtho[1,2-d]azepine-5a,10(1H)-diol] | 0.07
